This is an account of results in BindingDB's records for patent US20250177582 (Philochem, 2025).

The structures appear in SMILES notation.

Experiment [1] addresses T1, Prolyl endopeptidase FAP (Mus musculus, UniProt P97321).
T1 sequence (P97321 whole entry): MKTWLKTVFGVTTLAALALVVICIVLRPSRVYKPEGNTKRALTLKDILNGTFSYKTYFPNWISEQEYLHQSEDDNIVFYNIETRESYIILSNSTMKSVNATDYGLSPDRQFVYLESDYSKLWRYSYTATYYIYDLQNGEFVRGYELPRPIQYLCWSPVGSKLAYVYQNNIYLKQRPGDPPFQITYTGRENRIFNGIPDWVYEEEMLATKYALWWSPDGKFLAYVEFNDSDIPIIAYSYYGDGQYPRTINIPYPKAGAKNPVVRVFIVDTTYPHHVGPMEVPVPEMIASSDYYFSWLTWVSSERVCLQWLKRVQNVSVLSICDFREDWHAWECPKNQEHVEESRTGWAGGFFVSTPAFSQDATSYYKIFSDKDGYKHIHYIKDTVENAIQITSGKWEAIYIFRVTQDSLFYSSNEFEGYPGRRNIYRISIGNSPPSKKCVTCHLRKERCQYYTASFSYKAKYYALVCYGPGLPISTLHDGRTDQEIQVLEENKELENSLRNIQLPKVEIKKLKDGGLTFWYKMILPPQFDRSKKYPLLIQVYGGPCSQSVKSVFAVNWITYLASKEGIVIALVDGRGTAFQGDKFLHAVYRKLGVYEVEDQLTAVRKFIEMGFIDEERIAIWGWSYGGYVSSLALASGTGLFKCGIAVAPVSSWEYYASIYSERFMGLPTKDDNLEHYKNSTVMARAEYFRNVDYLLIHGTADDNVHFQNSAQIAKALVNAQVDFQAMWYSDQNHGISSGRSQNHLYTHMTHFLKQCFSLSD
The experiment in a line: Inhibition Assay. Here is the method: (§1) Inhibition assay of FAP. The compounds were precisely weighed (range between […]) on a micro-scale (HuberLab, Sartorius QUINTIX35-1S) and dissolved in DMSO to prepare stock solutions at 1 mM. Stock solutions were further diluted with FAP activation buffer (50 mM Tris, 100 mM NaCl, 1 mM EDTA, pH=7.4) to a final DMSO concentration of 10% v/v. 10 μL of each inhibitor were serially diluted in a 384 well plate (grenier-bio one, PS, F-bottom, Black, non-binding) with 10 μL of 10% DMSO FAP buffer (1:1 dilution). FAP (human and murine) was diluted to the desired concentration with FAP activation buffer and added to the serial dilution of inhibitor (10 μL for each well). Each protein-inhibitor solution was incubated for 30 minutes at room temperature. Each measurement was performed with an enzyme concentration (FAP) lower than the expected IC50. A 60 μM solution of substrate (Z-Gly-Pro-AMC) in FAP activation buffer (<1% DMSO) was added to the plate (10 μL for each well). The reaction was incubated from 1 minute to 48 hours at room temperature (22° C.-25° C.). The emission was read at 465 nm (excitation wavelength 360 nm) for 40 μs by Tecan Spark (s.n. 1808004082). […]

For experiment [2], the target named is T2, Prolyl endopeptidase FAP (Homo sapiens, UniProt Q12884).
T2 sequence (Q12884 whole entry): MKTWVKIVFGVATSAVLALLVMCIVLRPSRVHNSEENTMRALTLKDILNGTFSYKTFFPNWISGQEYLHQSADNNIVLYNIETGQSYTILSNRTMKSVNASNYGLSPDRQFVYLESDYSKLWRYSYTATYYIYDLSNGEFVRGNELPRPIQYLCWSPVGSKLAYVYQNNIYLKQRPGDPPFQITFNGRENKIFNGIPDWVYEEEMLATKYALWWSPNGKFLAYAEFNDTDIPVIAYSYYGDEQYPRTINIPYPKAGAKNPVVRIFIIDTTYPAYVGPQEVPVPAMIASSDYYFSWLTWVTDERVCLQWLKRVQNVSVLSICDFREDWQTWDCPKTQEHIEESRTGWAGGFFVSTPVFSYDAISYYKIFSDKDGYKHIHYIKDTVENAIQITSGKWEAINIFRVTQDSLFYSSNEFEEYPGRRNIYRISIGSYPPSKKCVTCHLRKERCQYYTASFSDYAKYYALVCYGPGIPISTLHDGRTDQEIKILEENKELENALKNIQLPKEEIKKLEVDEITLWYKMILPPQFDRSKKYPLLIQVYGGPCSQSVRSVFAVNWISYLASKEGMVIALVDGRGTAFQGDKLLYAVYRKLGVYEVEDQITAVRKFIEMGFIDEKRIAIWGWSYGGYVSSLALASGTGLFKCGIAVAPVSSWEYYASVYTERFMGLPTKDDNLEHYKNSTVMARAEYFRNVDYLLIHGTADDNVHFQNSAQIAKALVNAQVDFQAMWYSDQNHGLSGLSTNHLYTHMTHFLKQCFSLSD
In words: Inhibition Assay. Here is the method: as §1

For the compound `C#CC[C@H](NC(=O)[C@H](CCCNC(=N)N(C)C)NC(=O)c1coc(CNC(=O)CCC(=O)N2CC(F)(F)C[C@H]2C#N)c1)C(=O)N[C@@H](CCCCN)C(=O)O` [US20250177582, Compound 2], the half-inhibitory concentration (IC50) on Prolyl endopeptidase FAP [1] stood at 29.2 nM; on Prolyl endopeptidase FAP [2] it was 44.1 nM.

One may read the IC50 as the concentration needed to halve the response being measured. Low readings indicate higher potency, high ones lower potency.
